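Following 48 hours of exposure in 96-well plates, responses at five concentrations were used to interpolate endpoints linearly. TGI is the concentration that stops growth completely.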
Assays:
Test in all cases: NCI tumour cell line growth inhibition, 48 h
786-0 renal = tested on: 786-0 renal
A498 renal = tested on: A498 renal
A549 NSCLC = tested on: A549 NSCLC
ACHN renal = tested on: ACHN renal
BT-549 breast = tested on: BT-549 breast
CAKI-1 renal = tested on: CAKI-1 renal
CCRF-CEM leukemia = tested on: CCRF-CEM leukemia
COLO 205 colon = tested on: COLO 205 colon
DU-145 prostate = tested on: DU-145 prostate
EKVX NSCLC = tested on: EKVX NSCLC
HCC-2998 colon = tested on: HCC-2998 colon
HCT-116 colon = tested on: HCT-116 colon
HCT-15 colon = tested on: HCT-15 colon
HL-60(TB) leukemia = tested on: HL-60(TB) leukemia
HOP-62 NSCLC = tested on: HOP-62 NSCLC
HOP-92 NSCLC = tested on: HOP-92 NSCLC
HS 578T breast = tested on: HS 578T breast
HT29 colon = tested on: HT29 colon
IGROV1 ovarian = tested on: IGROV1 ovarian
K-562 leukemia = tested on: K-562 leukemia
KM12 colon = tested on: KM12 colon
LOX IMVI melanoma = tested on: LOX IMVI melanoma
M14 melanoma = tested on: M14 melanoma
MALME-3M melanoma = tested on: MALME-3M melanoma
MCF7 breast = tested on: MCF7 breast
MDA-MB-231 breast = tested on: MDA-MB-231 breast
MDA-MB-435 = tested on: MDA-MB-435
MDA-N = tested on: MDA-N
MOLT-4 leukemia = tested on: MOLT-4 leukemia
NCI-H226 lung = tested on: NCI-H226 lung
NCI-H23 lung = tested on: NCI-H23 lung
NCI-H460 lung = tested on: NCI-H460 lung
NCI-H522 lung = tested on: NCI-H522 lung
NCI/ADR-RES ovarian = tested on: NCI/ADR-RES ovarian
OVCAR-3 ovarian = tested on: OVCAR-3 ovarian
OVCAR-4 ovarian = tested on: OVCAR-4 ovarian
OVCAR-5 ovarian = tested on: OVCAR-5 ovarian
PC-3 prostate = tested on: PC-3 prostate
RPMI-8226 leukemia = tested on: RPMI-8226 leukemia
RXF 393 renal = tested on: RXF 393 renal
SF-268 CNS = tested on: SF-268 CNS
SF-539 CNS = tested on: SF-539 CNS
SK-MEL-28 melanoma = tested on: SK-MEL-28 melanoma
SK-MEL-5 melanoma = tested on: SK-MEL-5 melanoma
SK-OV-3 ovarian = tested on: SK-OV-3 ovarian
SNB-75 CNS = tested on: SNB-75 CNS
SR leukemia = tested on: SR leukemia
SW-620 colon = tested on: SW-620 colon
T-47D breast = tested on: T-47D breast
TK-10 renal = tested on: TK-10 renal
U251 CNS = tested on: U251 CNS
UACC-62 melanoma = tested on: UACC-62 melanoma
UO-31 renal = tested on: UO-31 renal
DLD-1 colon = tested on: DLD-1 colon
DMS 114 small cell lung = tested on: DMS 114 small cell lung
DMS 273 small cell lung = tested on: DMS 273 small cell lung
KM20L2 colon = tested on: KM20L2 colon
LXFL 529 NSCLC = tested on: LXFL 529 NSCLC
OVCAR-8 ovarian = tested on: OVCAR-8 ovarian
SF-295 CNS = tested on: SF-295 CNS
SK-MEL-2 melanoma = tested on: SK-MEL-2 melanoma
SN12C renal = tested on: SN12C renal
SNB-19 CNS = tested on: SNB-19 CNS
SNB-78 CNS = tested on: SNB-78 CNS
UACC-257 melanoma = tested on: UACC-257 melanoma

CC1(C)C2CCC3=C(CCC4(C)C5C[C@](C)(C(=O)O)CC[C@]5(C)CC[C@]34C)[C@@]2(C)CC[C@@H]1O (stereo partly specified)
TGI (786-0 renal): 29.3 µM | TGI (A498 renal): 44.7 µM | TGI (A549 NSCLC): 26.6 µM | TGI (ACHN renal): 29.9 µM | TGI (BT-549 breast): 39.1 µM | TGI (CAKI-1 renal): 37.7 µM | TGI (CCRF-CEM leukemia): 36.3 µM | TGI (COLO 205 colon): > 100 µM | TGI (DU-145 prostate): 34.5 µM | TGI (EKVX NSCLC): 53 µM | TGI (HCC-2998 colon): > 100 µM | TGI (HCT-116 colon): 30.2 µM | TGI (HCT-15 colon): 37.7 µM | TGI (HL-60(TB) leukemia): 50.4 µM | TGI (HOP-62 NSCLC): 31.3 µM | TGI (HOP-92 NSCLC): 38.7 µM | TGI (HS 578T breast): 59.1 µM | TGI (HT29 colon): 33 µM | TGI (IGROV1 ovarian): 49.4 µM | TGI (K-562 leukemia): 49 µM | TGI (KM12 colon): 33.6 µM | TGI (LOX IMVI melanoma): 31.2 µM | TGI (M14 melanoma): 31.8 µM | TGI (MALME-3M melanoma): 31.5 µM | TGI (MCF7 breast): 40.4 µM | TGI (MDA-MB-231 breast): 33.8 µM | TGI (MDA-MB-435): 63 µM | TGI (MDA-N): 37.8 µM | TGI (MOLT-4 leukemia): 48.9 µM | TGI (NCI-H226 lung): 67.9 µM | TGI (NCI-H23 lung): 43.2 µM | TGI (NCI-H460 lung): 30 µM | TGI (NCI-H522 lung): 40.8 µM | TGI (NCI/ADR-RES ovarian): 36 µM | TGI (OVCAR-3 ovarian): 29.8 µM | TGI (OVCAR-4 ovarian): 32.9 µM | TGI (OVCAR-5 ovarian): > 100 µM | TGI (PC-3 prostate): 29.1 µM | TGI (RPMI-8226 leukemia): 51.1 µM | TGI (RXF 393 renal): 41.3 µM | TGI (SF-268 CNS): > 100 µM | TGI (SF-539 CNS): > 100 µM | TGI (SK-MEL-28 melanoma): 33.7 µM | TGI (SK-MEL-5 melanoma): 68.7 µM | TGI (SK-OV-3 ovarian): 35.7 µM | TGI (SNB-75 CNS): 34.4 µM | TGI (SR leukemia): > 100 µM | TGI (SW-620 colon): 32.3 µM | TGI (T-47D breast): 38.4 µM | TGI (TK-10 renal): 32.2 µM | TGI (U251 CNS): 27.1 µM | TGI (UACC-62 melanoma): 37.6 µM | TGI (UO-31 renal): > 100 µM

O/N=C(\c1ccccc1)N1CCCCC1
TGI (786-0 renal): > 100 µM | TGI (A549 NSCLC): > 100 µM | TGI (CAKI-1 renal): > 100 µM | TGI (COLO 205 colon): > 100 µM | TGI (DLD-1 colon): > 100 µM | TGI (DMS 114 small cell lung): > 100 µM | TGI (DMS 273 small cell lung): > 100 µM | TGI (HCC-2998 colon): > 100 µM | TGI (HCT-116 colon): > 100 µM | TGI (HL-60(TB) leukemia): > 100 µM | TGI (HOP-62 NSCLC): > 100 µM | TGI (HOP-92 NSCLC): > 100 µM | TGI (HT29 colon): > 100 µM | TGI (KM12 colon): > 100 µM | TGI (KM20L2 colon): > 100 µM | TGI (LOX IMVI melanoma): > 100 µM | TGI (LXFL 529 NSCLC): > 100 µM | TGI (M14 melanoma): > 100 µM | TGI (NCI-H23 lung): > 100 µM | TGI (NCI-H460 lung): > 100 µM | TGI (NCI-H522 lung): > 100 µM | TGI (OVCAR-3 ovarian): > 100 µM | TGI (OVCAR-4 ovarian): > 100 µM | TGI (OVCAR-5 ovarian): > 100 µM | TGI (OVCAR-8 ovarian): > 100 µM | TGI (SF-268 CNS): > 100 µM | TGI (SF-295 CNS): > 100 µM | TGI (SF-539 CNS): > 100 µM | TGI (SK-MEL-2 melanoma): > 100 µM | TGI (SN12C renal): > 100 µM | TGI (SNB-19 CNS): > 100 µM | TGI (SNB-75 CNS): > 100 µM | TGI (SNB-78 CNS): > 100 µM | TGI (SR leukemia): > 100 µM | TGI (SW-620 colon): > 100 µM | TGI (U251 CNS): > 100 µM | TGI (UACC-257 melanoma): > 100 µM | TGI (UO-31 renal): > 100 µM

— PubChem BioAssay (NCI)
